Test results published in patent US10463651B2, “3-(1H-pyrrolo[3,2-C]pyridin-2-YL)-1H-indazoles and therapeutic uses thereof” (Samumed, LLC, priority 2015, dated 2019).

Columns and labels:
Format in all cases: cell-based
[1] = tested on: primary human mesenchymal stem cells (hMSCs); experiment: Induction of chondrogenesis in hMSCs (Rhodamine B / Nile Red nodule imaging); conditions: for EC50: concentration required to induce 50% levels of chondrogenesis vs TGF-β3 positive control, read-out: Conc (nM) of 50% TGF-β3 activity; for Emax: maximum activity relative to TGF-β3 (10 ng/mL) positive control, read-out: Max. Activity as % TGF-β3 activity
Text: Representative compounds were screened using primary human mesenchymal stem cells (hMSCs) to determine their ability to induce chondrogenesis (process by which cartilage is developed).
Primary human mesenchymal stem cells (hMSCs) were purchased from Lonza (Walkersville, Md.) and expanded in Mesenchymal Stem Cell Growth Media (Lonza). Cells between passage 3 and 6 were used for the experiments.
Area of nodules in each well was normalized to the average of 3 DMSO treated wells on the same plate using Excel (Microsoft Inc.). The normalized averages (fold change over DMSO) of 2 or 3 replicate wells for each compound concentration were calculated. Due to solubility limitations of some of the compounds, curve fitting was incomplete leading to inaccurate EC50 determinations.
Using TGF-β3 as a positive control, the concentration of representative compounds required to induce 50% levels of chondrogenesis is reported. In addition, the maximum activity of each compound and the respective dose that each compound reached maximum chondrogenesis activity is reported.

[2] = tested on: Wnt activity (Sp5-Luc reporter, SW480 colon carcinoma cells); experiment: Screening assay for Wnt activity (Sp5-Luc reporter gene assay in SW480 cells); conditions: Homo sapiens; for EC50: Sp5-Luc reporter, SW480 cells, incubated overnight
Summary of the method: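 SW480 colon carcinoma cells stably carrying Sp5 promoter (eight TCF/LEF sites)-driven firefly luciferase, plated at 4,000 cells/well in 1% FBS medium and incubated overnight at 37° C. Luminescence normalised to DMSO-only cells; EC50 from four-parameter variable-slope nonlinear regression.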

[3] = tested on: IL-6 (THP-1 cells); experiment: IL-6 inhibition in LPS-stimulated THP-1 cells (HTRF); conditions: Homo sapiens; for EC50: IL6 by HTRF, THP-1 cells, 500 ng/mL LPS, 22 hours
Summary of the method: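 THP-1 cells, pre-cultured 24 h in 1% FBS medium, treated with compound 2 h at 37 °C, then stimulated with 500 ng/mL LPS for 22 h. Secreted IL-6 measured by HTRF as the 665/620 nm ratio. Values normalized to DMSO; EC50 from four-parameter fit, duplicates.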

[4] = tested on: SW480 colon cancer cells; experiment: Cell viability assay (CellTiter-Blue); conditions: Homo sapiens; for EC50: 96 h, SW480 cell viability, four days, CellTiter-Blue
Summary of the method: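 Fluorescence from resazurin reduced to resorufin by metabolically active cells was the read-out, taken after ~3 h with CellTiter-Blue.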

[5] = tested on: primary human fibroblasts derived from IPF patients (LL29 cells) treated with TGF-β1; experiment: Inhibition of the fibrotic process (αSMA staining) in TGF-β1-treated fibroblasts; conditions: Fibroblast, 96 h; for EC50: % αSMA-positive LL29 cells, TGF-β1 20 ng/mL, 4 days
Summary of the method: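 LL29 fibroblasts from IPF patients, 1,500 cells/well in F12 with 1% FBS, stimulated with TGF-β1; TGF-β1 plus DMSO wells as controls. Incubation 4 days, then SYTOX green 1 μM final for 30 min at room temperature. Fibrotic response read as αSMA staining.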

| EC50 [1] [nM] | EC50 [2] [nM] | EC50 [3] [nM] | EC50 [4] [nM] | SMILES | Emax [1] [%] | EC50 [5] [nM] | inhibition at 10 µM ([4]; SW480, 96 h, read-out: percent inhibition at 10 μM) [%] | inhibition at 10 µM ([3]; THP-1, read-out: percent inhibition at 10 M) [%] | inhibition at 10 µM ([5]; read-out: percent inhibition at 10 μM) [%] | inhibition at 10 µM ([2]; SW480, read-out: percent inhibition at 10 μM) [%] |
| --- | --- | --- | --- | --- | --- | --- | --- | --- | --- | --- |
| 10 | 40 | 53 | 68 | c1cncc(-c2ccc3[nH]nc(-c4cc5cnccc5[nH]4)c3c2)c1 [Compound 256, 5-(Pyridin-3-yl)-3-(1H-pyrrolo[3,2-c]pyridin-2-yl)-1H-indazole] | 341 | 106 |  |  |  |  |
| 10 | 1040 | 451 | 844 | CCNCc1cncc(-c2ccc3[nH]nc(-c4cc5cnccc5[nH]4)c3c2)c1 [Compound 258, N-((5-(3-(1H-Pyrrolo[3,2-c]pyridin-2-yl)-1H-indazol-5-yl)pyridin-3-yl)methyl)ethanamine] | 317 | 1260 |  |  |  |  |
| 2700 | 140 | 343 | 333 | CC(C)C(=O)Nc1cncc(-c2ccc3[nH]nc(-c4cc5cnccc5[nH]4)c3c2)c1 [Compound 261, N-(5-(3-(1H-Pyrrolo[3,2-c]pyridin-2-yl)-1H-indazol-5-yl)pyridin-3-yl)isobutyramide] | 181 | 362 |  |  |  |  |
| 10 | 1760 | 1700 | 3490 | O=C(Cc1ccccc1)Nc1cncc(-c2ccc3[nH]nc(-c4cc5cnccc5[nH]4)c3c2)c1 [Compound 262, N-(5-(3-(1H-Pyrrolo[3,2-c]pyridin-2-yl)-1H-indazol-5-yl)pyridin-3-yl)-2-phenylacetamide] | 119 | 757 |  |  |  |  |
|  | 790 | 380 | 514 | c1cc2[nH]c(-c3n[nH]c4ccc(-c5cncc(CN6CCCC6)c5)cc34)cc2cn1 [Compound 266, 5-(5-(Pyrrolidin-1-ylmethyl)pyridin-3-yl)-3-(1H-pyrrolo[3,2-c]pyridin-2-yl)-1H-indazole] | 26 | 1850 |  |  |  |  |
| 100 | 685 | 288 | 422 | c1cc2[nH]c(-c3n[nH]c4ccc(-c5cncc(CN6CCCCC6)c5)cc34)cc2cn1 [Compound 267, 5-(5-(Piperidin-1-ylmethyl)pyridin-3-yl)-3-(1H-pyrrolo[3,2-c]pyridin-2-yl)-1H-indazole] | 122 | 571 |  |  |  |  |
| 10 | 120 | 94 | 236 | CC(C)(C)CC(=O)Nc1cncc(-c2ccc3[nH]nc(-c4cc5cnccc5[nH]4)c3c2)c1 [Compound 268, N-(5-(3-(1H-Pyrrolo[3,2-c]pyridin-2-yl)-1H-indazol-5-yl)pyridin-3-yl)-3,3-dimethylbutanamide] | 208 | 199 |  |  |  |  |

Further lines, the compound ahead of its results:

| SMILES | EC50 [1] [nM] | EC50 [2] [nM] | EC50 [3] [nM] | EC50 [4] [nM] | Emax [1] [%] | EC50 [5] [nM] | inhibition at 10 µM ([4]; SW480, 96 h, read-out: percent inhibition at 10 μM) [%] | inhibition at 10 µM ([3]; THP-1, read-out: percent inhibition at 10 M) [%] | inhibition at 10 µM ([5]; read-out: percent inhibition at 10 μM) [%] | inhibition at 10 µM ([2]; SW480, read-out: percent inhibition at 10 μM) [%] |
| --- | --- | --- | --- | --- | --- | --- | --- | --- | --- | --- |
| CC(C)(C)CC(=O)Nc1cncc(-c2ccc3[nH]nc(-c4cc5c(N6CCCCC6)nccc5[nH]4)c3c2)c1 [Compound 184, 3,3-Dimethyl-N-(5-(3-(4-(piperidin-1-yl)-1H-pyrrolo[3,2-c]pyridin-2-yl)-1H-indazol-5-yl)pyridin-3-yl)butanamide] | 900 | 2020 | 8900 | 1540 | 79 | 1470 |  |  |  |  |
| O=C(Nc1cncc(-c2ccc3[nH]nc(-c4cc5c(N6CCCCC6)nccc5[nH]4)c3c2)c1)C1CC1 [Compound 188, N-(5-(3-(4-(Piperidin-1-yl)-1H-pyrrolo[3,2-c]pyridin-2-yl)-1H-indazol-5-yl)pyridin-3-yl)cyclopropanecarboxamide] | 900 | 1800 | 381 | 972 | 146 | 9010 |  |  |  |  |
| O=C(Nc1cncc(-c2ccc3[nH]nc(-c4cc5c(N6CCCCC6)nccc5[nH]4)c3c2)c1)C1CCC1 [Compound 189, N-(5-(3-(4-(Piperidin-1-yl)-1H-pyrrolo[3,2-c]pyridin-2-yl)-1H-indazol-5-yl)pyridin-3-yl)cyclobutanecarboxamide] |  | 955 | 232 | 906 | 34 | 337 |  |  |  |  |
| FC1(F)CCN(Cc2cncc(-c3ccc4[nH]nc(-c5cc6c(N7CCCCC7)nccc6[nH]5)c4c3)c2)C1 [Compound 194, 5-(5-((3,3-difluoropyrrolidin-1-yl)methyl)pyridin-3-yl)-3-(4-(piperidin-1-yl)-1H-pyrrolo[3,2-c]pyridin-2-yl)-1H-indazole] |  | 2000 | 257 | 1420 | 40 | 1000 |  |  |  |  |
| Cc1ccncc1-c1ccc2[nH]nc(-c3cc4c(N5CCN(C)CC5)nccc4[nH]3)c2c1 [Compound 229, 3-(4-(4-Methylpiperazin-1-yl)-1H-pyrrolo[3,2-c]pyridin-2-yl)-5-(4-methylpyridin-3-yl)-1H-indazole] |  | 3500 | 1090 | 3680 | 36 | 2980 |  |  |  |  |
| CC(C)C(=O)Nc1cncc(-c2ccc3[nH]nc(-c4cc5c(N6CCN(C)CC6)nccc5[nH]4)c3c2)c1 [Compound 233, N-(5-(3-(4-(4-Methylpiperazin-1-yl)-1H-pyrrolo[3,2-c]pyridin-2-yl)-1H-indazol-5-yl)pyridin-3-yl)isobutyramide] |  | 7690 | 6110 | > 10000 | 21 | 4720 | 38.5 |  |  |  |
| CN1CCN(c2nccc3[nH]c(-c4n[nH]c5ccc(-c6cncc(NC(=O)c7ccccc7)c6)cc45)cc23)CC1 [Compound 235, N-(5-(3-(4-(4-Methylpiperazin-1-yl)-1H-pyrrolo[3,2-c]pyridin-2-yl)-1H-indazol-5-yl)pyridin-3-yl)benzamide] |  | 2140 | 754 | 3620 | 35 | 1610 |  |  |  |  |
| CN1CCN(c2nccc3[nH]c(-c4n[nH]c5ccc(-c6cncc(CN7CCCC7)c6)cc45)cc23)CC1 [Compound 238, 3-(4-(4-Methylpiperazin-1-yl)-1H-pyrrolo[3,2-c]pyridin-2-yl)-5-(5-(pyrrolidin-1-ylmethyl)pyridin-3-yl)-1H-indazole] |  | 9380 | > 10000 | 4190 | 31 | > 10000 |  | 40.5 | 45.7 |  |
| CN1CCN(c2nccc3[nH]c(-c4n[nH]c5ccc(-c6cncc(CN7CCCCC7)c6)cc45)cc23)CC1 [Compound 239, 3-(4-(4-Methylpiperazin-1-yl)-1H-pyrrolo[3,2-c]pyridin-2-yl)-5-(5-(piperidin-1-ylmethyl)pyridin-3-yl)-1H-indazole] | 900 | > 10000 | 8420 | 3700 | 55 | 5120 |  |  |  | 51 |
| CCCCC(=O)Nc1cncc(-c2ccc3[nH]nc(-c4cc5c(N6CCN(C)CC6)nccc5[nH]4)c3c2)c1 [Compound 243, N-(5-(3-(4-(4-Methylpiperazin-1-yl)-1H-pyrrolo[3,2-c]pyridin-2-yl)-1H-indazol-5-yl)pyridin-3-yl)pentanamide] |  | 3690 | 3170 | 3480 | 49 | 1830 |  |  |  |  |
| CN1CCN(c2nccc3[nH]c(-c4n[nH]c5ccc(-c6cncc(NC(=O)C7CCCCC7)c6)cc45)cc23)CC1 [Compound 247, N-(5-(3-(4-(4-Methylpiperazin-1-yl)-1H-pyrrolo[3,2-c]pyridin-2-yl)-1H-indazol-5-yl)pyridin-3-yl)cyclohexanecarboxamide] |  | 5270 | 8870 | 4820 | 38 | 3350 |  |  |  |  |
| CCC(=O)Nc1cncc(-c2ccc3[nH]nc(-c4cc5cnccc5[nH]4)c3c2)c1 [Compound 253, N-(5-(3-(1H-Pyrrolo[3,2-c]pyridin-2-yl)-1H-indazol-5-yl)pyridin-3-yl) propionamide] | 900 | 150 | 189 | 533 | 259 | 499 |  |  |  |  |
